# Read-outs that look alike come from different tables or passages of the source. [invdT] = inverted (3'-3') thymidine; {TYE665} = TYE665 fluorescent dye
# Columns and labels:
# [1] = 40 nmol/Kg i.v.
# Experimental: NOD/SCID mice received a single i.v. injection of 40 nmol/Kg of transferrin/EpCAM aptamer with four various structures (TEPP: Bi3 transferrin^+/EpCAM^+; TEPN: transferrin^+/EpCAM^−; TENP: transferrin^−/EpCAM^+; TENN: Bi1 transferrin^−/EpCAM^−). The concentration of aptamers, expressed as % of injected dose (ID) per mg of tissue, in tissues indicated was determined at 30 min and 60 min after the agent administration using ELISA. Data are means±SEM (n=3).
# To evaluate the advantage of positive transferrin-modified aptamers over their negative transferrin-modified counterparts in brain uptake, the biodistribution of aptamers with four various structures (transferrin+/EpCAM+, transferrin+/EpCAM−, transferrin−/EpCAM+, transferrin−/EpCAM−) were studied at 30 min and 60 min after a single i.v. injection of these agents at a dosage of 40 nmol/Kg into NOD/SCID mice.
# [2] = mouse, in vivo
# HEY cells = assay: Confocal microscopy internalisation into HEY cells; assay type: cell-based, human
# Experimental: Confocal microscopy was used as a means of visualising aptamer internalisation into the cells. Both aptamers and cells were prepared in the same manner as described above before they were mixed and allowed to incubate at 37° C. The aptamers were used at a concentration of 200 nM and were allowed to incubate for 60 minutes. The concentration for the conjugate (bifunctional) aptamers was 400 nM and these were incubated with the cells for 120 minutes. Ten minutes prior to end of incubation, 2 μL of Hoechst nuclear stain (10 mg/mL) was added to cells. Cells were then washed three times with 100 μL of PBS as described above and resuspended in 20 μL (8×10^5 cells/well) in an 8-chambered slide (Lab-Tek II, Nunc) for visualisation. Cells were incubated in blocking buffer for 60 mins followed by resuspension in binding buffer containing the aptamer and incubated for 60 mins at 37° C. Bisbenzimide Hoechst 33342 (3 mg/ml) (Sigma) was added to the cells during the final 10 min of incubation. The aptamer solution was removed and the cells were washed three times for 5 min each in PBS prior to visualisation using a FluoView FV10i laser scanning confocal microscope (Olympus).
# As with the anti-TfR single aptamers, it was necessary to ensure that the binding that had been observed could be attributed to cellular internalisation rather than surface attachment. This was done in a similar manner as before. […]
substance,measurement,setting,value
"5′-GCGCGGTACCGCGCTAACGGAGGTTGCGTCCGT-3′ (GCGCGGTACCGCGCTAACGGAGGTTGCGTCCGN; listed as DNA, chemistry not given here) [Bi3]","Accumulation in brain, fold higher than transferrin−/EpCAM+",[1]; 30 min,3.1 fold
same,"Accumulation in brain, fold higher than transferrin−/EpCAM−",[1]; 30 min,12.2 fold
same,"Accumulation in brain, fold higher than transferrin−/EpCAM+",[1]; 60 min,2.5 fold
same,"Accumulation in brain, fold higher than transferrin−/EpCAM−",[1]; 60 min,10.8 fold
"Bi1: aptamer conjugate based on TfR1 and scrambled EpCAM binding loop, negative control, SEQ ID NO:8 (GCGCGTGCACGCGCTAACGGATTCCTTTTCCGN; listed as DNA, further chemistry not given here)",Fluorescent signal in dissected brain,[2],no signal
same,Internalisation into EpCAM-positive HEY cell line,"HEY cells; conjugate aptamers, 400 nM, two hour",observed to internalise
"TfR3: version of TfR1 with scrambled binding loop sequence, SEQ ID NO:6 (DNA GCGTGGTACCACGC; DNA, 5' {TYE665}, 3' [invdT], backbone not given here)",Internalisation of anti-TfR aptamer into HEY cells,HEY cells,not detected

# — patent US10577610B2, “EpCAM aptamers and conjugates thereof” (Deakin University, priority 2015, dated 2020)
